Results: patent US9249147B2, “Tyrosine kinase inhibitors” (CHEMBRIDGE CORPORATION, priority 2008, dated 2016)
“Also recorded” adds a separate entry of the source. Blank lines part the entries; values can stand above or below the molecule they belong to.

Assays:
RET = RET (Homo sapiens, UniProt P07949); test: RET cell free kinase assay (Table 3A); assay type: biochemical
U937 = test: Cellular IC50, U937; assay type: cell-based; details: Homo sapiens, U-937; Table 3A
[1] = Liver microsome stability, Mouse LM-P1 / MLM; assay type: in vitro ADME; details: Table 3A, mouse liver microsomes; read-out: CL MLM
ROS = ROS (Homo sapiens, UniProt P08922); test: ROS cell free kinase assay (Table 3A); assay type: biochemical
TRKA = TRKA (Homo sapiens, UniProt P04629); test: TRKA kinase assay; assay type: biochemical; parameters: 6×His- or GST-tagged kinase domain fragments of the corresponding RTKs expressed in baculovirus system; host or cells: baculovirus system; details: Table 3A; read-out: Cell Free IC50 TRKA
ALK = ALK (Homo sapiens, UniProt Q9UM73); test: ALK kinase assay (Kinase-Glo / AlphaScreen, purified NPM-ALK); assay type: biochemical; parameters: fused to the complete intracytoplasmic portion of ALK containing the functional tyrosine kinase domain; 6xHis; made in house; host or cells: insect cells; the other entry of the earlier key: NPM1 (P06748, Nucleophosmin); details: Table 3A; read-out: Cell Free IC50 ALK;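 note: recombinant baculovirus-expressed ALK kinase domain, activity read either as leftover ATP by Kinase-Glo luminescence or as poly(Glu-Tyr) phosphorylation by anti-phosphotyrosine AlphaScreen proximity signal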
SUDHL-1 = test: Cellular IC50, SUDHL-1; assay type: cell-based; details: Homo sapiens, SU-DHL-1; Table 3A
Source text: (§1) Cell proliferation inhibition assays were run for compound (II) with the five target NPM-ALK-dependent ALCL cell lines (Karpas 299, SuDHL-1, JB6, SupM2, UConn) and 12 unrelated cell lines (HEK293, CHO-K1, MCF7, HepG2, H292, H520, H1581, H596, H522, CHA-GO-K1, UMC-11, SK-MES1). […] The pronounced target cell-killing effect is also observed (molecular mechanisms to be determined).

Karpas299 = test: Cell proliferation inhibition, ALCL line Karpas299; assay type: cell-based; details: Homo sapiens, KARPAS-299; Table 3A; read-out: Cellular IC50 K-299
Source text: The IL-3-dependent lymphoid cell line BaF3 or BaF3 rendered IL-3-independent by engineered expression of NPM-ALK were used in parallel to test each candidate inhibitor. Control wells contained DMSO solvent without test compound. Specific inhibition of ALK signaling is indicated in the assay by impairment of NPM-ALK-expressing BaF3 cell growth without alterations in the growth of parental BaF3. This colorimetric assay of cell proliferation and viability is based upon reduction of the yellow monotetrazolium salt XTT to a water-soluble orange formazan dye, a reaction catalyzed by mitochondrial dehydrogenases in living cells only (Cell Proliferation Kit II, Cat. #1 465 015, Roche Biochemicals). In addition to testing compounds for their ability to impair the growth of BaF3 cells engineered to express NPM-ALK, the NPM-ALK-positive human lymphoma cell line Karpas-299 (Deutsche Sammlung von Mikroorganismen and Zellkulturen GmbH (DSMZ) no. ACC 31), the human BCR-ABL-positive chronic myeloid leukemia cell line K562 (American Type Culture Collection (ATCC) no. CCL-243), and the human T-cell leukemia line Jurkat (DSMZ no. ACC 282) were tested in these assays.
Each compound stock in 100% DMSO was first diluted using 8% DMSO/culture medium to produce a working stock of 250 μM compound. This working stock was then used to perform serial 1:1 dilutions (i.e., 125 μM, 62.5 μM, 31.25 μM, 15.625 μM, 7.8125 μM, and 3.90625 μM) using DMSO-free culture medium. Twenty (20) μL of each of these dilutions was then added to the cells (2×10^4 cells in 80 μL culture medium per 96-well) to obtain the final test compound concentrations (i.e., 25 μM, 12.5 μM, 6.25 μM, 3.125 μM, 1.5625 μM, and 0.78125 μM).
as §1

[2] = Liver microsome stability, Human LM-P1 / HLM; assay type: in vitro ADME; details: Table 3A, human liver microsomes; read-out: CL HLM
Source text: Metabolic stability of compound (II) (labeled as CRL241 below) in vitro has been tested in a standard in vitro microsomal stability assay in human microsomes (Cerep Study 13170).

ALCL cell lines = test: Proliferation of NPM-ALK-dependent ALCL / ALK+ T-cell lymphoma cell lines; assay type: cell-based; details: FIGS. 5, 6
Source text: as §1

FKBP51 (GR pathway) = test: GR specific anti-inflammatory marker FKBP51 in A549 cells; assay type: cell-based
PC-12 cells = test: PC-12 cell cytotoxicity; assay type: cell-based; details: FIG. 13
A549 cells [3] = test: TNFα-induced acute inflammation in A549 cells; assay type: cell-based; details: 100 nM Dex or 1 μM compound (VI)
A549 cells [4] = test: Prolonged inflammation (PMA induced MMP-1 or IL-8) in A549 cells; assay type: cell-based; details: FIG. 17
Source text: Panel 3: All the above were done on the transcriptional level (i.e., MMP-1, IL-8, etc. expressions). For IL-8, this was verified on the translational (i.e., protein expression) level as well.

IL-8 in A549 cells = test: PMA-induced IL-8 levels in A549 cells, with or without RU-486; assay type: cell-based; details: 4 hr treatments
MMP-1 in A549 cells [5] = test: PMA induced MMP-1 production in A549 cells; assay type: cell-based; details: one hour treatment
MMP-1 in A549 cells [6] = test: Combination of Trk inhibitor and glucocorticoid on MMP-1 expression in A549 cells; assay type: cell-based; details: sub-optimal concentrations
PC12 cells = test: NGF-stimulated neurite outgrowth in PC12 cells; assay type: cell-based; details: 100 nM compound, NGF 100 ng/ml, 6 days
Method: In chronic pain states, neurons form outgrowths which sensitize them to pain. NGF-induced neurite outgrowth was used as an assay for TrkA-dependent chronic/neuropathic pain activity.
Methods: PC12 cells were grown in 2% FBS and treated with or without NGF (100 ng/ml) 30 min before adding of vehicle or TRKA compounds for 6 days, changing media on day 3. On day 6 cells were fixed and stained for SRB before photographed for neurite outgrowth.

Sequence of TRKA (P04629 510-781 limits assumed): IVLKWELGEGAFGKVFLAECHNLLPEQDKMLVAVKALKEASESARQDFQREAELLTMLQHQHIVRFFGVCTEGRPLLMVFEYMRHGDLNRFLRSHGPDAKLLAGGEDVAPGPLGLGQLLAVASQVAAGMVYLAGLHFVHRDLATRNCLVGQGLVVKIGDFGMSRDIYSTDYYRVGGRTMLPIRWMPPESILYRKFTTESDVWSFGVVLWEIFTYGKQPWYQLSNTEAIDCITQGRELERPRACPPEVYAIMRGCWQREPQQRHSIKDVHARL
Sequence of RET (P07949 29-1114): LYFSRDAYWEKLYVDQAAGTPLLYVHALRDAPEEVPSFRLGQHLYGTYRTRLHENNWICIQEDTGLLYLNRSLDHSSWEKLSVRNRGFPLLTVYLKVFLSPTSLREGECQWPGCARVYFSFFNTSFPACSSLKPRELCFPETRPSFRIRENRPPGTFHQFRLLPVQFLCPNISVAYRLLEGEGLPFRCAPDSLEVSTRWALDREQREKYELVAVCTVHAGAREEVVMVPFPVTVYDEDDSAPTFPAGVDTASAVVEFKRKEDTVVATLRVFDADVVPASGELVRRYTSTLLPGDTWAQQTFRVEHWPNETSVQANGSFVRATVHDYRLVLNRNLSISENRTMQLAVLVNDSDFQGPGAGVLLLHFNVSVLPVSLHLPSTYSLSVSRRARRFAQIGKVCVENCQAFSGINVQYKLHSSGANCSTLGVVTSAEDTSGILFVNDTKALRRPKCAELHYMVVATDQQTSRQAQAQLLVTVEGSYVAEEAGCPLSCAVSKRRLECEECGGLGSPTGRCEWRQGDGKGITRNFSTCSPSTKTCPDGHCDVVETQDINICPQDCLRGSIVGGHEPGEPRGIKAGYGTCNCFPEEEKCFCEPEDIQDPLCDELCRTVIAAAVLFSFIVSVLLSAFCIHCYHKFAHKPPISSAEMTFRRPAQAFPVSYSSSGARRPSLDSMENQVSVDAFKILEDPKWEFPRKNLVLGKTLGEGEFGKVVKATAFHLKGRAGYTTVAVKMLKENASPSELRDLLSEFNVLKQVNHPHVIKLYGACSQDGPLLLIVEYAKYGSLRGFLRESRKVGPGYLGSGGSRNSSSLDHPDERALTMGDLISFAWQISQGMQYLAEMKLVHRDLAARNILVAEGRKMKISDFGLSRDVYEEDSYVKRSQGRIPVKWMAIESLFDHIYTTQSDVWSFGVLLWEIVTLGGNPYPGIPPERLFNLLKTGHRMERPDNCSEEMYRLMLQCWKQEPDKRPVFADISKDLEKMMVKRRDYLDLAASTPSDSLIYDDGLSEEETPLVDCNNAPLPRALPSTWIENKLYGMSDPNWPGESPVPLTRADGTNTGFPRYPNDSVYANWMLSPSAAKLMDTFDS
Sequence of ROS (P08922 28-2347): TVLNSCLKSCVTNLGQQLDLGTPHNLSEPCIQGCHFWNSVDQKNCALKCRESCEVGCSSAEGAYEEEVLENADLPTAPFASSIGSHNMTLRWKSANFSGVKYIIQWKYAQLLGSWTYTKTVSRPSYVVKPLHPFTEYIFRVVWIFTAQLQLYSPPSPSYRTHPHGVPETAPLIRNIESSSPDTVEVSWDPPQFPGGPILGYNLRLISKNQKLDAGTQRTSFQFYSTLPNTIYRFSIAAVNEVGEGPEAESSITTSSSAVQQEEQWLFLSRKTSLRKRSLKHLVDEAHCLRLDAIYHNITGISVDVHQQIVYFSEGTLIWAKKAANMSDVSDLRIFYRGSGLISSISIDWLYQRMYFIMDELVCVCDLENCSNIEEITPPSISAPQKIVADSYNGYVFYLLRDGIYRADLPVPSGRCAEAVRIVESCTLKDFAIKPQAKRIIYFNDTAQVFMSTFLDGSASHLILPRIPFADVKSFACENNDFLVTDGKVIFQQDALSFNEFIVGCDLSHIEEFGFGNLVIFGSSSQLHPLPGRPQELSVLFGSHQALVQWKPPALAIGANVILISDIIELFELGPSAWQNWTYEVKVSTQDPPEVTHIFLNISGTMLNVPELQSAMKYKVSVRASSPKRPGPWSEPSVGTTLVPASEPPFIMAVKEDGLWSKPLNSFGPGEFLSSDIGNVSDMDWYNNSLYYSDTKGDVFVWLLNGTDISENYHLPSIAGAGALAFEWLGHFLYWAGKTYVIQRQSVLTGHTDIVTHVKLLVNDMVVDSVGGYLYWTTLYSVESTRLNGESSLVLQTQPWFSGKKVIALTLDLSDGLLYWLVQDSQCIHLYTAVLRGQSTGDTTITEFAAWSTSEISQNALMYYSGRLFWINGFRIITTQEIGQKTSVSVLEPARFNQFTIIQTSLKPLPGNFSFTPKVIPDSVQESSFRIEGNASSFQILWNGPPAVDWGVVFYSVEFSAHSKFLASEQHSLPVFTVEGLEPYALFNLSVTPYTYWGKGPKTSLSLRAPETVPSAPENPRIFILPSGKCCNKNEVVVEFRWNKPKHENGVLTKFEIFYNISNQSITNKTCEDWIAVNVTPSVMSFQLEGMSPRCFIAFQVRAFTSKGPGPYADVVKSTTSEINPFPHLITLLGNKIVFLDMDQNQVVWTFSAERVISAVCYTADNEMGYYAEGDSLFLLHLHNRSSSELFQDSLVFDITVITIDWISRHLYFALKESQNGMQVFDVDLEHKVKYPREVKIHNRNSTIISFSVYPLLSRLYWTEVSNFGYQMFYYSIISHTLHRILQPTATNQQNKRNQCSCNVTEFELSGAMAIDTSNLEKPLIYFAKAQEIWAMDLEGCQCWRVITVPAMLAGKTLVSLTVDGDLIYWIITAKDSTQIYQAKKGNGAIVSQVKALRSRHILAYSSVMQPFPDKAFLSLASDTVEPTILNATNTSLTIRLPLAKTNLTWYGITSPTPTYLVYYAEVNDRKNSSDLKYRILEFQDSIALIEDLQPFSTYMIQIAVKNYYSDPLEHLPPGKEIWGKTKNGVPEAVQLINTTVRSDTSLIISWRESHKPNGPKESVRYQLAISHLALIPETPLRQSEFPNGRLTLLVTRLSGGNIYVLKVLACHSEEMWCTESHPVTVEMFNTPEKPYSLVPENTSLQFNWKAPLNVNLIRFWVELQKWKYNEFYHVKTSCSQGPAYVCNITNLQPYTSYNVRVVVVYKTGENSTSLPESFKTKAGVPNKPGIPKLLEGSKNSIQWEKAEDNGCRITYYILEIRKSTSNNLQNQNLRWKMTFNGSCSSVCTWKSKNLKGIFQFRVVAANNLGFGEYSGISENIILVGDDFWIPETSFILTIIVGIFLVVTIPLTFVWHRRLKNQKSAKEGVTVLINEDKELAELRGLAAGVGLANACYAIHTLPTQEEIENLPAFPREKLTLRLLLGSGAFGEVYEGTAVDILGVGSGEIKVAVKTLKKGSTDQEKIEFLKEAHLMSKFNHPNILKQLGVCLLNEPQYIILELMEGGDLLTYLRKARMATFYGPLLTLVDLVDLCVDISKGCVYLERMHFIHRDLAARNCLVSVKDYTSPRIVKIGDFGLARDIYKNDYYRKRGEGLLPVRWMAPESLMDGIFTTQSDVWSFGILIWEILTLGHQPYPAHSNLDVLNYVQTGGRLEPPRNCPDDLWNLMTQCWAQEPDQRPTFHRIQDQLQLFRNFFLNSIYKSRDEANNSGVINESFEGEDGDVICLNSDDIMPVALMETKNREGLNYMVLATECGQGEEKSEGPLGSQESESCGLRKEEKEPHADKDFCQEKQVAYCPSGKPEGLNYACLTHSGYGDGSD
Sequence of ALK (Q9UM73 with tags, fused parts or gaps): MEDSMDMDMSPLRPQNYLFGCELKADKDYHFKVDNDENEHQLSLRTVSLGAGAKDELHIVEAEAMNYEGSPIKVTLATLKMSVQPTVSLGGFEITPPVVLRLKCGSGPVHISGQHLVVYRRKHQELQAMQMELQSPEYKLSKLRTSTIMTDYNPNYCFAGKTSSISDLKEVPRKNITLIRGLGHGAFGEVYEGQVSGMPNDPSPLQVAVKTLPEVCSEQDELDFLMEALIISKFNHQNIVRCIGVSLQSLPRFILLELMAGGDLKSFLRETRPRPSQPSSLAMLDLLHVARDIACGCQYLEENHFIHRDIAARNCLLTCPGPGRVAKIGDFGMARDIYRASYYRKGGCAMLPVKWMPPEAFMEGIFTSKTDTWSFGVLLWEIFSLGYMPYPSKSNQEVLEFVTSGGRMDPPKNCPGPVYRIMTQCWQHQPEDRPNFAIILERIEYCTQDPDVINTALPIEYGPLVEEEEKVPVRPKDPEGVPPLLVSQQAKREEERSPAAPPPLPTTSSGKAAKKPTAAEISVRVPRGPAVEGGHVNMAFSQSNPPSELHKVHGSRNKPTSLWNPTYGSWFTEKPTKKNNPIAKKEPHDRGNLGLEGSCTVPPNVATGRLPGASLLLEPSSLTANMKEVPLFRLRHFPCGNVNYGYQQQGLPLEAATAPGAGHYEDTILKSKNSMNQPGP

IC50 (RET): 0.006 µM
IC50 (U937): 1.18 µM
CLint scaled [1]: < 5.8 mL/min/kg
IC50 (ROS): 0.0003 µM
IC50 (TRKA): 0.005 µM
IC50 (ALK): 0.01 µM
IC50 (SUDHL-1): 0.093 µM
IC50 (Karpas299): 0.099 µM
CLint scaled [2]: < 5.8 mL/min/kg
Compound: C[C@@H](Cc1c(F)c(F)cc(F)c1F)Nc1cc[nH]c(=O)c1-c1nc2cc3c(cc2[nH]1)C(=O)N(C1CCN(C)CC1)C3

Compound: C[C@@H](Cc1cccs1)Nc1cc[nH]c(=O)c1-c1nc2cc3c(cc2[nH]1)C(=O)N(CCCN1CCCC1)C3 [compound (V)]
Inhibition of ALCL / ALK+ T-cell lymphoma cell line proliferation (ALCL cell lines): potent and highly selective inhibitor of ALCL cell lines

Compound: C[C@@H](Cc1cc(F)cc(F)c1F)Nc1cc[nH]c(=O)c1-c1nc2cc3c(cc2[nH]1)CN(CCN(C)C)C3=O [compound (VI)]
Activation of GR pathway (FKBP51 marker) (FKBP51 (GR pathway)): did not active the GR pathway
PC-12 cell cytotoxicity (PC-12 cells): lack of PC-12 cell cytotoxicity
TNFα-induced acute inflammation (A549 cells [3]): partially reversible
Anti-inflammatory effect on prolonged inflammation (PMA induced MMP-1 or IL-8) (A549 cells [4]): anti-inflammatory activity was observed; also recorded: demonstrated anti-inflammatory activity which was not reversible by GR antagonist
Effect of GR antagonist RU-486 on inhibition of PMA-induced IL-8 levels (IL-8 in A549 cells): not affected or possibly were more potent
Concentration required for complete inhibition of PMA induced MMP-1 production (MMP-1 in A549 cells [5]): ~1 µM
Effect of combination with Dex on PMA-induced inflammation (MMP-1 expression) (MMP-1 in A549 cells [6]): additive anti-inflammatory effects
NGF-stimulated neurite outgrowth (PC12 cells): inhibited the neurite outgrowth
